The numbers were not newly measured in US20230012071A1, “MODIFIED RELEASE PHARMACEUTICAL COMPOSITIONS OF RIOCIGUAT” (ZYDUS LIFESCIENCES LIMITED, priority 2019, published 2023), which cites them from elsewhere.

For the data set the following is noted: existing marketed immediate release tablet.

Bounds are passed on as bounds.

Turning to `COC(=O)N(C)c1c(N)nc(-c2nn(Cc3ccccc3F)c3ncccc23)nc1N`, the absolute bioavailability result was “about 94%” and the “time at which peak plasma concentrations are observed following drug administration” value is at most 1.5 h.
